Literature values as cited in patent US8362266B2, “Method of manufacturing a ruthenium complex” (Niiki Pharma Inc., priority 2007, dated 2013).

Test system: broad spectrum of cancer cells
Conditions: background statement citing Kapitza et al., J. Cancer Res. Clin. Oncol. 131(2):101-10 (2005)

Compound	inducing apoptosis
[Cl-].[Cl-].[Cl-].[Cl-].[Ru+3].c1ccc2[nH][nH+]cc2c1.c1ccc2[nH]ncc2c1.c1ccc2[nH]ncc2c1 [KP1099, indazolium trans-[tetrachlorobis(1H-indazole)ruthenate (III)]]	highly potent
[Cl][Ru-]([Cl])([Cl])[Cl].[Na+].c1ccc2[nH]ncc2c1.c1ccc2[nH]ncc2c1 [KP1339, sodium trans-[tetrachlorobis(1H-indazole)ruthenate (III)]]	highly potent
